pKd: −log10 of the molar value.
system: not given; assay: not given; conditions: not given

`Oc1ccccc1CNc1cncc(Br)c1` [Compound 1, 2-[(5-Bromopyridin-3-ylamino)methyl]phenol] showed a melting point of 184 °C.

target: T1, AR receptor (Homo sapiens, UniProt P10275); assay: transactivation test in PALM (PC3 Androgen receptor Luciferase MMTV) cell line, cross curves against methyltrienolone; type: cell-based; conditions: cross curves vs reference agonist methyltrienolone, read-out: Kdapp (apparent dissociation constant)
T1 construct: expressed in transfected cells; host or cells: PALM (PC3 stably transfected with PMMTV-neo-Luc and pSG5puro-AR)
T1 sequence (P10275 1-920): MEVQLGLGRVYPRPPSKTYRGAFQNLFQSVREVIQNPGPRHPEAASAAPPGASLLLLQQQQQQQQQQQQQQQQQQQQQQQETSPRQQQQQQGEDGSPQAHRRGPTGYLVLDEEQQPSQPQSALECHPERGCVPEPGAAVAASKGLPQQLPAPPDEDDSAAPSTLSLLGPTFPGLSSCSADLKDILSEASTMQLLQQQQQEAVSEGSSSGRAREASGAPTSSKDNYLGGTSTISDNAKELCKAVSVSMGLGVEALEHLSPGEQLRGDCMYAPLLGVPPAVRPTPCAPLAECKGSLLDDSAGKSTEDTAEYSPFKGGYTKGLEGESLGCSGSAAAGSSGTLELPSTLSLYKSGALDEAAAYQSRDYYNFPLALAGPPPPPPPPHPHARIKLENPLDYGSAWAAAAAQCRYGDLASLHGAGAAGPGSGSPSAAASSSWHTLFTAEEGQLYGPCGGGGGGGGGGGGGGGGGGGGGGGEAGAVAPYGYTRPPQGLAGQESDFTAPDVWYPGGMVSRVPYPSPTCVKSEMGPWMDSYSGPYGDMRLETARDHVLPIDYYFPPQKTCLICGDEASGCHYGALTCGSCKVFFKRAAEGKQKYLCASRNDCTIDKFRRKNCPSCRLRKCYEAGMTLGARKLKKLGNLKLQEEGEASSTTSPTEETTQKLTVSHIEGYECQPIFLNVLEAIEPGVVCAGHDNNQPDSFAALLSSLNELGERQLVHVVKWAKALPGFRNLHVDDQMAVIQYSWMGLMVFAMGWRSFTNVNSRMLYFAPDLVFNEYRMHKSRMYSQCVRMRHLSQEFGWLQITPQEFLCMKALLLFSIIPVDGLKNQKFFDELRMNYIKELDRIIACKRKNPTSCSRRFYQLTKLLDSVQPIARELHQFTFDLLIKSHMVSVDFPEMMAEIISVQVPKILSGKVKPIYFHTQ
Method: The compounds according to the invention show inhibitory properties on receptors of AR type. This AR receptor-inhibiting activity is measured in a transactivation test through the KdR (resting), KdA (active) and Kdapp (apparent) dissociation constants according to the method set out in J. Molecular Biology (1965), 12(1), 88-118, Monod J. et al.
The expression “AR-type receptor inhibitor” means, according to the invention, any compound which has a Kdapp dissociation constant of less than or equal to 1 μM, and a KdR/Kda ratio ≦10, in a transactivation test.
The transactivation test is carried out in the PALM (PC3 Androgen receptor Luciferase MMTV) cell line which is a stable transfectant containing the PMMTV-neo-Luc (reporter gene) and pSG5puro-AR plasmids.
In this study, the affinity of each product for the 2 receptor states (KdR and KdA) is determined, as is an apparent Kd (Kdpp). This constant is a result of the 2 Kd, but also depends on the initial equilibrium of the receptor between the active state and the resting state (L0) and on its expression level. It is determined by means of the following formula: 1/KdApp=(L0/(1+L0))x(1/KdR)+(1/(1+L0))x(1/KdA)
To determine these constants, “cross curves” of the test product against a reference agonist, methyltrienolone, are produced in 96-well plates. The test product is used at 10 concentrations and the reference agonist at 7 concentrations.

First: CCC(Nc1cncc(Br)c1)c1ccccc1O (stereo not drawn) [Compound 9, 2-[1-(5-Bromopyridin-3-ylamino)propyl]phenol]
Second: Oc1ccccc1CNc1cncc(Br)c1 [Compound 1, 2-[(5-Bromopyridin-3-ylamino)methyl]phenol]
The pKd of the first is 1.00 log units lower: 7.22 for the first, 8.22 for the second.

Going from `Cc1cncc(NCc2ccccc2O)c1` [Compound 14, 2-[(5-Methylpyridin-3-ylamino)methyl]phenol] to `N#Cc1cncc(NCc2ccccc2O)c1` [Compound 4, 5-(2-Hydroxybenzylamino)nicotinonitrile], the pKd falls from 7.82 to 6.70 (1.12 log units). The first binds more tightly here.

In the case of `Oc1cccc(F)c1CNc1cncc(Br)c1` [Compound 2, 2-[(5-Bromopyridin-3-ylamino)methyl]-3-fluorophenol], the pKd was 8.30.

Reference: patent publication US9120753B2, “Phenol derivatives and pharmaceutical or cosmetic use thereof” (GALDERMA RESEARCH & DEVELOPMENT, priority 2009, dated 2015)
